Data as given in patent EP0432442A1, “ACAT inhibitors” (priority 1989, dated 1991).

Experiments:
[1] = target: acyl-CoA: cholesterol acyltransferase (ACAT); assay: in vitro ACAT inhibition: formation of radiolabeled cholesterol oleate from radiolabeled oleic acid in rabbit intestinal microsomes; type: biochemical; settings: tissue preparation containing rabbit intestinal microsomes
Experimental: The ability of representative compounds of the present invention to inhibit ACAT was measured using an in vitro test more fully described in F. J. Field and R. G. Salone, Biochemica et Biophysica 712:557-570 (1982). The test assesses the ability of a test compound to inhibit the acylation of cholesterol by oleic acid by measuring the amount of radiolabeled cholesterol oleate formed from radiolabeled oleic acid in a tissue preparation containing rabbit intestinal microsomes.
The data appear in Table 1 where they are expressed in IC50 values; i.e., the concentration of test compound required to inhibit 50% […] of the enzyme.

[2] = system: male Sprague-Dawley rats; assay: in vivo screen designated APCC: blood cholesterol in rats fed the PCC diet; settings: blood cholesterol vs vehicle (CMC/Tween); dosed at 4 PM, PCC diet with 1% or 0.5% cholic acid overnight, sacrificed at 8 AM; dose not given
Excerpt: In one in vivo screen designated APCC. male Sprague-Dawley rats (200 to 225 g) were randomly divided into treatment groups and dosed at 4 PM with either vehicle (CMCTween) or suspensions of compounds in vehicle. The normal chow diet was then replaced with the PCC diet with either 1% or 0.5^00 cholic acid, as indicated. The rats consumed this diet ad libitum during the night and were sacrificed at 8 AM to obtain blood samples for cholesterol analysis using standard procedures. Statistical differences between mean cholesterol values for the same vehicle were determined using analysis of variance followed by Fisher's least significant test.

Row | SMILES | IC50 [1] [nM] | % Change (mg/dl) [2] [%]
1 | CC(C)c1cccc(C(C)C)c1NC(=O)NCC(NC(=O)c1ccccc1)c1ccccc1 (racemic) [Example 4, (±)-N-[2-[[[[2,6-bis(1-methylethyl)phenyl]amino]carbonyl]amino]-1-phenylethyl]benzenecarboxamide] | 530 | –
2 | CC(C)c1cccc(C(C)C)c1NC(=O)NCC(NCc1ccccc1)c1ccccc1 (racemic) [Example 5, (±)-N-(2,6-bis(1-methylethyl)phenyl]-N'-[2-phenylmethylamino)-2-phenylethyl]urea] | 51 | -53
3 | CCCCCCC(=O)NC(CNC(=O)Nc1c(C(C)C)cccc1C(C)C)c1ccccc1 (racemic) [Example 7, (±)-N-[2-[[[[2,6-bis(1-methylethyl)phenyl]amino]carbonyl]amino]-1-phenylethyl]heptanamide] | 150 | –
4 | CCCCCCCNC(CNC(=O)Nc1c(C(C)C)cccc1C(C)C)c1ccccc1 (racemic) [Example 8, (±)-N-[2,6-bis(1-methylethyl)phenyl]-N'-[2-heptylamino-2-phenylethyl]urea] | 110 | -25
5 | CC(C)c1cccc(C(C)C)c1NC(=O)NCC(NC(=O)CCCCCBr)c1ccccc1 (racemic) [Example 9, (±)-N-[2-[[[[2,6-bis(1-methylethy))phenyl]amino]carbonyl]amino]-1-phenylethyl]-6-bromohexanamide] | 380 | -36
6 | COCCCCCC(=O)NC(CNC(=O)Nc1c(C(C)C)cccc1C(C)C)c1ccccc1 (racemic) [Example 10, (±)-N-[2-[[[[2,6-bis(1-methylethyl)phenyl]amino]carbonyl]amino]-1-phenylethyl]-6-methoxyhexanamide] | 390 | –
7 | CCCCCCCCCCCCNCC(CNC(=O)Nc1c(C(C)C)cccc1C(C)C)c1ccccc1 (racemic) [Example 11, (±)-N-[2,6-bis(1-methylethyl)phenyl]-N'-[3-dodecylamino-2-phenylpropyl]urea] | – | -54
8 | CC(C)c1cccc(C(C)C)c1NC(=O)NCC(NC(=O)c1ccccn1)c1ccccc1 (racemic) [Example 12, (±)-N-[2-[[[[2,6-bis(1-methylethyl)phenyl]amino]carbonyl]amino]-1-phenethyl-2-pyridinylarnide] | 80 | –
